According to ChEMBL document CHEMBL3217463, “Design, synthesis and biological evaluation of -lactam hydroxamate based TACE inhibitors” (Medchemcomm, 2011):

Key:
Rattus norvegicus [1] = test: Toxicity in Wistar rat assessed as alanine aminotransferase at 100 mg/kg, po bid for 28 days (reference value: 20.78 +/- 1.31 U/L); type: organism-based; set-up: dose 100 mg/kg, route oral; conditions: in vivo, 672 h
Rattus norvegicus [2] = test: Toxicity in Wistar rat assessed as aspartate aminotransferase at 100 mg/kg, po bid for 28 days (reference value: 147.16 +/- 11.75 U/L); type: organism-based; set-up: dose 100 mg/kg, route oral; conditions: in vivo, 672 h
Rattus norvegicus [3] = test: Toxicity in Wistar rat assessed as alkaline phosphatase at 100 mg/kg, po bid for 28 days (reference value: 134.66 +/- 5.3 U/L); type: organism-based; set-up: dose 100 mg/kg, route oral; conditions: in vivo, 672 h
Blood = test: Antiinflammatory activity in human whole blood assessed as inhibition of LPS-induced TNFalpha secretion by ELISA; type: functional, tissue-based
Rattus norvegicus [4] = test: Toxicity in Wistar rat assessed as WBC count at 100 mg/kg, po bid for 28 days (reference value: 8.20 +/- 0.33 10^3/ul); type: organism-based; set-up: dose 100 mg/kg, route oral; conditions: in vivo, 672 h
[5] = biological target: T1, Disintegrin and metalloproteinase domain-containing protein 17 (Homo sapiens, UniProt P78536); test: Inhibition of human catalytic domain of TACE assessed as inhibit the cleavage of the substrate by fluorescence-based FRET assay
T1 sequence (P78536 whole entry, the tested form may be a part): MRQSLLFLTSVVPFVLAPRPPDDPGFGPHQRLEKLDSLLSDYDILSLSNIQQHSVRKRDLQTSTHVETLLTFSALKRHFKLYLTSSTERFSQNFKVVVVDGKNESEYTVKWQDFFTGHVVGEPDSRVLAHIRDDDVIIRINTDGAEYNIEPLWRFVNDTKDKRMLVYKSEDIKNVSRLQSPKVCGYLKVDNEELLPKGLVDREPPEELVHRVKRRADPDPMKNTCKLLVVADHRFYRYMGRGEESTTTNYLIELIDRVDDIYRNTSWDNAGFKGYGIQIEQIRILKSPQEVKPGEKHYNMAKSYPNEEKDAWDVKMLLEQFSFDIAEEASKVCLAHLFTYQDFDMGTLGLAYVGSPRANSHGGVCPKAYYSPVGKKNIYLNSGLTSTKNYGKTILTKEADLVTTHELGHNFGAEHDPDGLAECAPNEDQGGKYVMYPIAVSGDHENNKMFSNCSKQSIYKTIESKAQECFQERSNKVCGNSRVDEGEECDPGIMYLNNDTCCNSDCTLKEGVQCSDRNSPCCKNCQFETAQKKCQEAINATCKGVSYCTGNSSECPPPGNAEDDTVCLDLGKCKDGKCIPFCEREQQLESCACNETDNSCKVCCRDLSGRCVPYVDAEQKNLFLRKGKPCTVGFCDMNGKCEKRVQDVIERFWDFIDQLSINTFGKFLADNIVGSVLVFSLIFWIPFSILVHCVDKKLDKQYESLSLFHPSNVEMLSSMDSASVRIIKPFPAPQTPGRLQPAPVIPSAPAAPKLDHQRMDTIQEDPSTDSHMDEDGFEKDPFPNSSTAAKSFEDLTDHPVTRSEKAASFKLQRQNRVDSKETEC

Interstitial collagenase = biological target: T2, Interstitial collagenase (Homo sapiens, UniProt P03956); test: Inhibition of MMP1 (unknown origin) by fluorescence-based FRET assay
T2 sequence (P03956 whole entry): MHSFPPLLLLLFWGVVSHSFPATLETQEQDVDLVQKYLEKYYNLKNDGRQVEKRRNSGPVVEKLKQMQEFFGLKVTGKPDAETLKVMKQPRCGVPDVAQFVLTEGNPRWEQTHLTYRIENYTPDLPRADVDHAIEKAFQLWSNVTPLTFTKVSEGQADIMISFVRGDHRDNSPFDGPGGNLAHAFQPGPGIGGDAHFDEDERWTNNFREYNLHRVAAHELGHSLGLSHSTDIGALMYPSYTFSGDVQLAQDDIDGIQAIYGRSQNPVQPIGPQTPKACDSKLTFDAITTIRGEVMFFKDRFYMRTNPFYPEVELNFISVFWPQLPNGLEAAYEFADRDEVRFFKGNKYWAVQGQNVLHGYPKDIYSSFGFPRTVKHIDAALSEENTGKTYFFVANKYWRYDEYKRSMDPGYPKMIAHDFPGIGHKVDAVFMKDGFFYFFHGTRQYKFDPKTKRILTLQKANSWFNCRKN

Stromelysin-1 = Stromelysin-1 (Homo sapiens, UniProt P08254); test: Inhibition of MMP3 (unknown origin) by fluorescence-based FRET assay
Stromelysin-1, sequence (P08254 whole entry): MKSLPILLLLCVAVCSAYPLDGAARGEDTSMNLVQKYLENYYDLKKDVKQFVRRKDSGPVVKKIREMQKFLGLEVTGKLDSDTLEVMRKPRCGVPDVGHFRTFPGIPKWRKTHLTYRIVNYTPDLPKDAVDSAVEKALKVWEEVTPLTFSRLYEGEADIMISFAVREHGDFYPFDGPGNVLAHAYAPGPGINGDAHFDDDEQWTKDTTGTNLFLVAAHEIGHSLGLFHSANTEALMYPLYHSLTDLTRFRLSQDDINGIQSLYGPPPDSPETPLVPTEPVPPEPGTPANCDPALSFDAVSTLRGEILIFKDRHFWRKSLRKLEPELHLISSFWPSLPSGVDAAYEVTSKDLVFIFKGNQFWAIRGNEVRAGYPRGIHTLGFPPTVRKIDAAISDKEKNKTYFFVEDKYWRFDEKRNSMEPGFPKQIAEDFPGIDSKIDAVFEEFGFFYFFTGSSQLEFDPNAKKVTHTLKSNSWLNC

Matrilysin = biological target: T3, Matrilysin (Homo sapiens, UniProt P09237); test: Inhibition of MMP7 (unknown origin) by fluorescence-based FRET assay
T3 sequence (P09237 whole entry): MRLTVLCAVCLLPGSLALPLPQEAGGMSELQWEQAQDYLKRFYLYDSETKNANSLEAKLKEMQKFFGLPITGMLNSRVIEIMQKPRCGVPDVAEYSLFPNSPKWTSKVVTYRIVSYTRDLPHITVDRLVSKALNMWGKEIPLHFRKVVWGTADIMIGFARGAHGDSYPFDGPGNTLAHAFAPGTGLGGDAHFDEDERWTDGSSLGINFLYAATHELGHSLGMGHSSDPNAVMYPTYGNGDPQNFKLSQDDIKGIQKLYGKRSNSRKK

[6] = biological target: Matrix metalloproteinase-9 (Homo sapiens, UniProt P14780); test: Inhibition of MMP9 (unknown origin) by fluorescence-based FRET assay
Matrix metalloproteinase-9, sequence (P14780 whole entry, the tested form may be a part): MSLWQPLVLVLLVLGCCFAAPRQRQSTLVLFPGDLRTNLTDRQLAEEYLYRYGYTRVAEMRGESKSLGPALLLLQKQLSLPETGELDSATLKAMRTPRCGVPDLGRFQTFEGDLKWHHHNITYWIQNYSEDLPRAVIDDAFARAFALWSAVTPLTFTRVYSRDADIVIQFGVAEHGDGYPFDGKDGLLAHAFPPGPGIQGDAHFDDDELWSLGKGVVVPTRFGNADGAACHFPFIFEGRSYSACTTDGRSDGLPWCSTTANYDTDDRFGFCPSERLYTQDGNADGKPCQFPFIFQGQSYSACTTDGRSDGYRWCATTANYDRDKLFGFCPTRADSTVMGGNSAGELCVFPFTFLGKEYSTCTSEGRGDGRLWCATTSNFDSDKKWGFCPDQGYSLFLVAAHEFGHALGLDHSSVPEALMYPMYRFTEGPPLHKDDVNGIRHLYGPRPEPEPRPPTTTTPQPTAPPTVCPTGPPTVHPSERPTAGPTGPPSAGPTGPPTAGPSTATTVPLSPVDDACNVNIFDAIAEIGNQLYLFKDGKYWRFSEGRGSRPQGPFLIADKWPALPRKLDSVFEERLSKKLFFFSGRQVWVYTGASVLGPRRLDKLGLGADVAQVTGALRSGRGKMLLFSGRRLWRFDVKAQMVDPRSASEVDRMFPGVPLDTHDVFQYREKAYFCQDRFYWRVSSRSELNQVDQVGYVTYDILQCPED

[7] = biological target: T1, Disintegrin and metalloproteinase domain-containing protein 17; test: Ratio of IC50 for human catalytic domain of TACE to IC50 for ADAM10 (unknown origin)
[8] = biological target: T1, Disintegrin and metalloproteinase domain-containing protein 17; test: Ratio of IC50 for human catalytic domain of TACE to IC50 for MMP1 (unknown origin)
[9] = biological target: T1, Disintegrin and metalloproteinase domain-containing protein 17; test: Ratio of IC50 for human catalytic domain of TACE to IC50 for MMP2 (unknown origin)
[10] = biological target: T1, Disintegrin and metalloproteinase domain-containing protein 17; test: Ratio of IC50 for human catalytic domain of TACE to IC50 for MMP3 (unknown origin)
[11] = biological target: T1, Disintegrin and metalloproteinase domain-containing protein 17; test: Ratio of IC50 for human catalytic domain of TACE to IC50 for MMP13 (unknown origin)
Mus musculus = test: Antiinflammatory activity in po dosed Swiss Albino mouse assessed as inhibition of LPS-induced TNFalpha secretion in blood treated 0.5 hrs before LPS and measured after 1 hr of LPS stimulus by ELISA; type: functional
[12] = Half life in Wistar rat at 5 mg/kg, iv; type: ADME, organism-based; set-up: dose 5 mg/kg, route intravenous; conditions: in vivo
[13] = Elimination rate constant in Wistar rat at 5 mg/kg, iv; type: ADME, organism-based; set-up: dose 5 mg/kg, route intravenous; conditions: in vivo
[14] = AUC in Wistar rat at 5 mg/kg, iv; type: ADME, organism-based; set-up: dose 5 mg/kg, route intravenous; conditions: plasma
[15] = Tmax in Wistar rat at 5 mg/kg, po; type: ADME, organism-based; set-up: dose 5 mg/kg, route oral; conditions: in vivo
Rattus norvegicus [16] = test: Half life in Wistar rat at 5 mg/kg, po; type: ADME, organism-based; set-up: dose 5 mg/kg, route oral; conditions: in vivo
Rattus norvegicus [17] = test: Elimination rate constant in Wistar rat at 5 mg/kg, po; type: ADME, organism-based; set-up: dose 5 mg/kg, route oral; conditions: in vivo
[18] = AUC in Wistar rat at 5 mg/kg, po; type: ADME, organism-based; set-up: dose 5 mg/kg, route oral; conditions: plasma
Rattus norvegicus [19] = test: Toxicity in Wistar rat assessed as survival at 100 mg/kg, po bid for 28 days; type: organism-based; set-up: dose 100 mg/kg, route oral; conditions: in vivo, 672 h
Rattus norvegicus [20] = test: Toxicity in Wistar rat assessed as adverse changes at 100 mg/kg, po bid for 28 days; type: organism-based; set-up: dose 100 mg/kg, route oral; conditions: in vivo, 672 h
Rattus norvegicus [21] = test: Toxicity in Wistar rat assessed as food consumption at 100 mg/kg, po bid for 28 days; type: organism-based; set-up: dose 100 mg/kg, route oral; conditions: in vivo, 672 h
Rattus norvegicus [22] = test: Toxicity in Wistar rat assessed as relative heart weight at 100 mg/kg, po bid for 28 days (reference value: 0.345 +/- 0.007 %); type: organism-based; set-up: dose 100 mg/kg, route oral; conditions: in vivo, 672 h
Rattus norvegicus [23] = test: Toxicity in Wistar rat assessed as relative liver weight at 100 mg/kg, po bid for 28 days (reference value: 3.659 +/- 0.1 %); type: organism-based; set-up: dose 100 mg/kg, route oral; conditions: in vivo, 672 h
Rattus norvegicus [24] = test: Toxicity in Wistar rat assessed as relative spleen weight at 100 mg/kg, po bid for 28 days (reference value: 0.201+/- 0.007 %); type: organism-based; set-up: dose 100 mg/kg, route oral; conditions: in vivo, 672 h
Rattus norvegicus [25] = test: Toxicity in Wistar rat assessed as relative brain weight at 100 mg/kg, po bid for 28 days (reference value: 0.727+/- 0.024 %); type: organism-based; set-up: dose 100 mg/kg, route oral; conditions: in vivo, 672 h

Which Activity (Rattus norvegicus [1]) does the source give for COCCc1cc(COc2ccc([C@]3(N)CCN([C@H](CC(C)C)C(=O)NO)C3=O)cc2)c2ccccc2n1 here?
The Activity was 21.04 U/L.

And the Activity (Rattus norvegicus [2])?
Its Activity is 140.2 U/L.

And the Activity (Rattus norvegicus [3])?
Its Activity is 121.2 U/L.

And the IC50 (Blood)?
Its IC50 is 0.013 µM.

What about the Activity (Rattus norvegicus [4]) of the same molecule?
The Activity was 8.41 ×10³ /uL.

And the IC50 [5]?
Its IC50 is 0.0023 µM.

And the IC50 (Interstitial collagenase)?
Its IC50 is 1.06 µM.

What about the IC50 (Stromelysin-1) of the same molecule?
Its IC50 is 1.02 µM.

What about the IC50 (Matrilysin) of the same molecule?
Its IC50 is 1.01 µM.

And the IC50 [6]?
The IC50 was 1.21 µM.

What about the Ratio IC50 [7] of the same molecule?
The Ratio IC50 was greater than 500.

What about the Ratio IC50 [8] of the same molecule?
Its Ratio IC50 is greater than 500.

And the Ratio IC50 [9]?
The Ratio IC50 was greater than 500.

And the Ratio IC50 [10]?
The Ratio IC50 was greater than 500.

And the Ratio IC50 [11]?
The Ratio IC50 was greater than 500.

And the ED50 (Mus musculus)?
Its ED50 is 3.1 mg/kg.

And the half-life [12]?
Its half-life is 1.09 h.

And the k el [13]?
Its k el is 0.000283 s⁻¹.

And the AUC [14]?
The AUC was 19700 ng·h/mL.

What about the Tmax [15] of the same molecule?
Its Tmax is 0.33 h.

And the t1/2 (Rattus norvegicus [16])?
Its t1/2 is 3.81 h.

What about the Kel (Rattus norvegicus [17]) of the same molecule?
The Kel was 0.44 h⁻¹.

And the AUC [18]?
Its AUC is 11800 ng·h/mL.

What about the Activity (Rattus norvegicus [19]) of the same molecule?
The Activity was “Non-toxic”.

What about the Activity (Rattus norvegicus [20]) of the same molecule?
The Activity was “Non-toxic”.

And the Activity (Rattus norvegicus [21])?
The Activity was “Non-toxic”.

What about the Activity (Rattus norvegicus [22]) of the same molecule?
The Activity was 0.358%.

And the Activity (Rattus norvegicus [23])?
The Activity was 3.801%.

And the Activity (Rattus norvegicus [24])?
Its Activity is 0.203%.

What about the Activity (Rattus norvegicus [25]) of the same molecule?
The Activity was 0.703%.
